This assay concerns the target Lysophosphatidic acid receptor 1 (Homo sapiens, UniProt Q92633). Nature of the assay: In Vitro Assay. As to the method:
CHO-hLPA1 cell lines are cultured in a humidified incubator at 5% CO2 in DMEM/F-12 (1:1) MIXTURE with 2 mM Glutamax, supplemented with 10% of Foetal Bovine Serum, 1 mM Sodium Pyruvate, 11 mM Hepes and 1× Penicillin/Streptomycin. […] Serial dilutions (1:3 or 1:4, 11 points CRC) of compounds are performed in 100% DMSO at 200× the final concentration. […] The final concentration of DMSO in the assay will be 0.5% in each well. Medium is removed by aspiration and cells are then incubated with 30 μl of a loading solution containing 5 μM of the cytoplasmic Ca2+ indicator Cal-520 AM in Assay Buffer containing 2.5 mM probenecid for 30 min at 37° C. incubator (cell loading). The loaded cell plates are transferred into the FLIPR instrument and calcium responses are monitored during the on-line addition protocols. For testing of compounds, after the cell loading, 10 μl/well of 4× antagonists' solution was added onto the cells. After 30 min pre-incubation (at 37° C.), 10 μl/well of 5× concentrated LPA EC80 was added and Ca2+ mobilization responses was followed during the on-line addition protocol. Intracellular peak fluorescence values subtracted by baseline fluorescence are exported and analysed to determine IC50 values, respectively.

Bounds are passed on as bounds.

Sequence of Lysophosphatidic acid receptor 1 (Q92633 whole entry): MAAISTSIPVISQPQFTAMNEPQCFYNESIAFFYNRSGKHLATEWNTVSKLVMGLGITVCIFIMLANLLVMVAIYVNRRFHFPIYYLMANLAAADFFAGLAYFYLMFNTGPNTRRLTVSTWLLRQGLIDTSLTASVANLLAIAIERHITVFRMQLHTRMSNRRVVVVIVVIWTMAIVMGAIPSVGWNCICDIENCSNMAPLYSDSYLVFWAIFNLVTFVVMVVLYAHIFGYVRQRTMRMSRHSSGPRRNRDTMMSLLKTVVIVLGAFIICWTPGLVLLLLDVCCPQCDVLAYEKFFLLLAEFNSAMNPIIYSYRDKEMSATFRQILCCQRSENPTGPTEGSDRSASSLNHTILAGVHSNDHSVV

As to `Cc1ccccc1[C@@H](C)OC(=O)Nc1c(C)noc1-c1ccc(NC(=O)[C@H]2CCCC[C@@H]2C(=O)O)c(C)n1` [US12454530, Example 32], the IC50 (in general, the concentration that inhibits the measured activity by half) was under 50 nM.

The record behind these values is BindingDB's records for patent US12454530 (Chiesi Farmaceutici, 2025).
